What all share (assay): two-electrode voltage clamp, Xenopus oocytes, heat-normalized AITC-evoked current
One test deals with T1, DmTRPA1-D (Drosophila melanogaster, UniProt H0USS9).
T1 construct: gene TrpA1; full CDS of splice isoform D (cDNA gift from Marco Gallio lab) in pOX(+), cRNA-injected Xenopus laevis oocytes
T1 sequence (H0USS9 1-1231): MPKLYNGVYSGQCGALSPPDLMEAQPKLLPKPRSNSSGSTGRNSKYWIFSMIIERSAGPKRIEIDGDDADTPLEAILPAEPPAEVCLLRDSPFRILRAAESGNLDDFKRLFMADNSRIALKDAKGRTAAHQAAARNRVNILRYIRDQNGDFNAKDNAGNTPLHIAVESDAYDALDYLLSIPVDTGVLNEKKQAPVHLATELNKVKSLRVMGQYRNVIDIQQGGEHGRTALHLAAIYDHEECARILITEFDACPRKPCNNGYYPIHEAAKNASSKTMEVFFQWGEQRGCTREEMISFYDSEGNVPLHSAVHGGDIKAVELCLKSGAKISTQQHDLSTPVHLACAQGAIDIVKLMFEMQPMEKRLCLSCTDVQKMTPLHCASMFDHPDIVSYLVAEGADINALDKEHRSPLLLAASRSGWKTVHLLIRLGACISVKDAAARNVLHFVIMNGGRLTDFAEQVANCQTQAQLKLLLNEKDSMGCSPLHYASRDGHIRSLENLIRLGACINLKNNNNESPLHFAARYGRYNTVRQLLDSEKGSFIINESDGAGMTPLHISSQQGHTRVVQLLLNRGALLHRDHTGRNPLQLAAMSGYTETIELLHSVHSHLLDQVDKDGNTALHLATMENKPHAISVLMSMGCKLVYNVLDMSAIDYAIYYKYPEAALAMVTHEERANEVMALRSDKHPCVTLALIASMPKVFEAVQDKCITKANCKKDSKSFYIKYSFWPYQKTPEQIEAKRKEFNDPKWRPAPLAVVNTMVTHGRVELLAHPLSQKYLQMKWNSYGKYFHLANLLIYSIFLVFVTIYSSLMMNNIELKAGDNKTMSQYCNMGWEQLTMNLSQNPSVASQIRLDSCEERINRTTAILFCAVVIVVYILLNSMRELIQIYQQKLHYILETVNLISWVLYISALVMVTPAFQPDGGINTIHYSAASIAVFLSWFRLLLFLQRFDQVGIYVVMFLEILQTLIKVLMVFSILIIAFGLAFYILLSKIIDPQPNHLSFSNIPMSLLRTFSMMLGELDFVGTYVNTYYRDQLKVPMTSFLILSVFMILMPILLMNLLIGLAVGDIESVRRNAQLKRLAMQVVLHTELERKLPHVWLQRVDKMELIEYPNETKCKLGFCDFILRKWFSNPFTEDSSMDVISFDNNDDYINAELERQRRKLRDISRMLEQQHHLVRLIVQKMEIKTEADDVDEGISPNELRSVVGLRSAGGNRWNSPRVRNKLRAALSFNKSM
It counts as cell-based. The settings on record: read-out: TRPA1-DL / DmTRPA1-D. The source says: two-electrode voltage clamp, Xenopus oocytes, heat-normalized AITC-evoked current on DmTRPA1-D

The test system of the next test is T2, SpTRPA1-CL.
T2 construct: gene TrpA1; full CDS of splice isoform CL (cDNA from adult labella) in pOX(+), cRNA-injected Xenopus laevis oocytes
It counts as cell-based, Scaptomyza pallida. The settings on record: agonist (electrophile); ND96 pH 7.4, -60 mV; after prior heat stimulus (>40 °C); read-out: TRPA1-CL / SpTRPA1-CL. The source says:
two-electrode voltage clamp, Xenopus oocytes, heat-normalized AITC-evoked current on SpTRPA1-CL

Another test concerns T3, SfTRPA1-CL.
T3 construct: gene TrpA1; full CDS of splice isoform CL (artificial synthesis, Genscript) in pOX(+), cRNA-injected Xenopus laevis oocytes
It counts as cell-based, Scaptomyza flava. Particulars: agonist (electrophile); ND96 pH 7.4, -60 mV; after prior heat stimulus (>40 °C); read-out: TRPA1-CL / SfTRPA1-CL. From the text: two-electrode voltage clamp, Xenopus oocytes, heat-normalized AITC-evoked current on SfTRPA1-CL

A further test deals with T4, DmTRPA1-C (Drosophila melanogaster, UniProt G8IQ59).
T4 construct: gene TrpA1; full CDS of splice isoform C (cDNA from third-instar larva whole body) in pOX(+), cRNA-injected Xenopus laevis oocytes
T4 sequence (G8IQ59 1-1232): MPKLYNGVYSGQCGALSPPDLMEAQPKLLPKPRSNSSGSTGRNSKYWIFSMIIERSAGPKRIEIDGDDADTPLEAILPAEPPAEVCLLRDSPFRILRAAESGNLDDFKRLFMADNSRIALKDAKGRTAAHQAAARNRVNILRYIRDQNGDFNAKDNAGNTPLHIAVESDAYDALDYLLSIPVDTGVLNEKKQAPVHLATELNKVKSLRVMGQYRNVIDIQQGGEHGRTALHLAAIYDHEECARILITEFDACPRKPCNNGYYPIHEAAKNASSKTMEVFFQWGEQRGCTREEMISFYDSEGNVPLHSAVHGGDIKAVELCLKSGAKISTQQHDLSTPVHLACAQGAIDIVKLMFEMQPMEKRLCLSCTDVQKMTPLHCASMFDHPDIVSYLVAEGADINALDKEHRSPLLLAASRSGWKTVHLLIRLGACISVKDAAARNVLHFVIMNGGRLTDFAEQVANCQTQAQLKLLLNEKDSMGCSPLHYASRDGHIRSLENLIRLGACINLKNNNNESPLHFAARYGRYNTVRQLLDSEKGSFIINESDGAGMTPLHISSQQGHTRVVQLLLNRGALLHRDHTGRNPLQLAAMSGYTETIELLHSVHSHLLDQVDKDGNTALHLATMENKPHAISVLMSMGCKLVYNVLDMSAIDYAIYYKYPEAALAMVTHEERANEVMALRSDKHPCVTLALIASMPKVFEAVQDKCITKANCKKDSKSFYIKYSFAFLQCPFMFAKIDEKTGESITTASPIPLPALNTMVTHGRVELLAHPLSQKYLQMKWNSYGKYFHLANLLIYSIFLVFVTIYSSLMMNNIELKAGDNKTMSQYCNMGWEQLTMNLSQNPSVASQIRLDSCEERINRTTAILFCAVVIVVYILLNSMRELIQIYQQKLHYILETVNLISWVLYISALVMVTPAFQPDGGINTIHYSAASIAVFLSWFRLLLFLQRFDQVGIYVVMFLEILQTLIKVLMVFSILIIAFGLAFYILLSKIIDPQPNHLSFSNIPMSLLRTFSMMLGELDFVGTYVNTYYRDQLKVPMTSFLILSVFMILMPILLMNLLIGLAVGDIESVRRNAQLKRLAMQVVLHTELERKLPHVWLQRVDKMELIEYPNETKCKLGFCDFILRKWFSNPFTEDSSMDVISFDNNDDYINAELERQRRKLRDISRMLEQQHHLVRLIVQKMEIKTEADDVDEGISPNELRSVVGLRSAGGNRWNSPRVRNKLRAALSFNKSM
The class given is cell-based. The settings on record: read-out: TRPA1-CL / DmTRPA1-C. The source says:
two-electrode voltage clamp, Xenopus oocytes, heat-normalized AITC-evoked current on DmTRPA1-C

In a further test the test system is T5, SfTRPA1-DL.
T5 construct: gene TrpA1; full CDS of splice isoform DL (artificial synthesis, Genscript) in pOX(+), cRNA-injected Xenopus laevis oocytes
It counts as cell-based, Scaptomyza flava. The settings on record: agonist (electrophile); ND96 pH 7.4, -60 mV; after prior heat stimulus (>40 °C); read-out: TRPA1-DL / SfTRPA1-DL. The source says: two-electrode voltage clamp, Xenopus oocytes, heat-normalized AITC-evoked current on SfTRPA1-DL

A further test relates to T6, SpTRPA1-DL.
T6 construct: gene TrpA1; full CDS of splice isoform DL (cDNA from adult tarsi) in pOX(+), cRNA-injected Xenopus laevis oocytes
The class given is cell-based, Scaptomyza pallida. Particulars: agonist (electrophile); ND96 pH 7.4, -60 mV; after prior heat stimulus (>40 °C); read-out: TRPA1-DL / SpTRPA1-DL. The source says: two-electrode voltage clamp, Xenopus oocytes, heat-normalized AITC-evoked current on SpTRPA1-DL

Structures are written as SMILES.

Take `C=CCN=C=S` [allyl isothiocyanate]: the EC50 on DmTRPA1-D is 341 ± 92 µM; with SpTRPA1-CL, 29 ± 15 µM; in the test with SfTRPA1-CL it was 65 ± 55 µM; at DmTRPA1-C, 8.6 ± 4.3 µM; in the test with SfTRPA1-DL, 316 ± 31 µM; in the test on SpTRPA1-DL, 103 ± 15 µM.
